Data: ChEMBL document CHEMBL3044888, “Fungicidal activity of indole derivatives against some plant pathogenic fungi” (J Pestic Sci, 2010)
≈ marks a conversion by molar mass, not a printed value.

Experiments:
[1] = system: Macrophomina phaseolina; assay: In vivo effect on peroxidase activity in Macrophomina phaseoli assessed as RNA content at 0.25 times of IC50 concentration (reference value: 16.1 +/- 0.4 mg/l); type: functional
[2] = system: Rhizoctonia solani; assay: In vivo effect on peroxidase activity in Rhizoctonia solani assessed as RNA content at 0.1 times of IC50 concentration (reference value: 25 +/- 0.7 mg/l); type: functional
[3] = system: Globisporangium debaryanum; assay: In vivo effect on peroxidase activity in Pythium debaryanum assessed as DNA content at 0.25 times of IC50 concentration (reference value: 31 +/- 0.8 mg/l); type: functional
[4] = system: Fusarium culmorum; assay: In vivo effect on peroxidase activity in Fusarium culmorum assessed as DNA content at 2 times of IC50 concentration (reference value: 49.5 +/- 1.6 mg/l); type: functional
[5] = system: Rhizoctonia solani; assay: Inhibition of peroxidase activity in Rhizoctonia solani at 0.1 times of IC50 concentration
[6] = target: T1, Peroxidase (Macrophomina phaseolina (strain MS6) (Charcoal rot fungus)) (UniProt K2RV19); assay: Inhibition of peroxidase activity in Macrophomina phaseoli at 2 times of IC50 concentration
T1 sequence (whole entry): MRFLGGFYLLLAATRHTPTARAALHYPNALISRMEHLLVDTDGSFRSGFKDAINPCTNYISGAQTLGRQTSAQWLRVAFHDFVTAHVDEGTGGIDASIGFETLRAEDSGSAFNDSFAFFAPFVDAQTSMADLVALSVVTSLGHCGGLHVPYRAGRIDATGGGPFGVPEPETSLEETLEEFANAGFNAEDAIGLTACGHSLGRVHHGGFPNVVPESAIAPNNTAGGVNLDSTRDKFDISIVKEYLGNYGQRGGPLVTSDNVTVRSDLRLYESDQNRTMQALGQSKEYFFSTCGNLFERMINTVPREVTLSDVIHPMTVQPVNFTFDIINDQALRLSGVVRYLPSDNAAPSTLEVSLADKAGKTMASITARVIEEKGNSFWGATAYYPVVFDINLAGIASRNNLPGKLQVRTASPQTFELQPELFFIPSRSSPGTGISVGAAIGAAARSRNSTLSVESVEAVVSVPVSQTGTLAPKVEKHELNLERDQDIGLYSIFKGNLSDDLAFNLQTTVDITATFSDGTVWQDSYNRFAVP

[7] = target: T1, Peroxidase (Macrophomina phaseolina (strain MS6) (Charcoal rot fungus)); assay: Inhibition of peroxidase activity in Macrophomina phaseoli at 1 times of IC50 concentration
[8] = target: T1, Peroxidase (Macrophomina phaseolina (strain MS6) (Charcoal rot fungus)); assay: Inhibition of peroxidase activity in Macrophomina phaseoli at 0.5 times of IC50 concentration
[9] = Activation of polyphenoloxidase activity in Pythium debaryanum; set-up: species or system Globisporangium debaryanum
[10] = Inhibition of polyphenoloxidase activity in Rhizoctonia solani
[11] = system: Fusarium culmorum; assay: Inhibition of peroxidase activity in Fusarium culmorum at 2 times of IC50 concentration
[12] = Inhibition of peroxidase activity in Fusarium culmorum
[13] = system: Fusarium culmorum; assay: Inhibition of peroxidase activity in Fusarium culmorum at 1 times of IC50 concentration
[14] = Inhibition of peroxidase activity in Pythium debaryanum; set-up: species or system Globisporangium debaryanum
[15] = target: T2, Peroxidase (Macrophomina phaseolina (strain MS6) (Charcoal rot fungus), UniProt K2RV19); assay: Activation of peroxidase activity in Macrophomina phaseoli
T2 sequence (K2RV19 whole entry): T1 sequence (whole entry)

[16] = system: Globisporangium debaryanum; assay: Inhibition of peroxidase activity in Pythium debaryanum at 2 times of IC50 concentration
[17] = system: Globisporangium debaryanum; assay: Inhibition of peroxidase activity in Pythium debaryanum at 1 times of IC50 concentration
[18] = Inhibition of polyphenoloxidase activity in Pythium debaryanum; set-up: species or system Globisporangium debaryanum

Row | Compound | Activity [1] [mg/L] | Activity [2] [mg/L] | Activity [3] [mg/L] | Activity [4] [mg/L] | inhibition [5] [%] | inhibition [6] [%] | inhibition [7] [%] | inhibition [8] [%] | AC50 [9] [µg/mL] | IC50 [10] [µg/mL] | inhibition [11] [%] | IC50 [12] [µg/mL] | inhibition [13] [%] | IC50 [14] [µg/mL] | AC50 [15] [µM] | inhibition [16] [%] | inhibition [17] [%] | IC50 [18] [µg/mL]
1 | c1ccc(-c2cc3ccccc3[nH]2)cc1 [2-PHENYL-1H-INDOLE] | 7.2 | 29.4 | 19.1 | 23.8 | 0 | 54.3 | 40.7 | 26.7 | 35.1 (≈ 182 µM) | 80.3 (≈ 416 µM) | 69.2 | 49.9 (≈ 258 µM) | 60.1 | – | – | – | – | –
2 | CC(=O)n1c(-c2ccccc2)cc2ccccc21 | 10.6 | 23.6 | 25.8 | 19.5 | – | – | – | – | – | – | – | – | – | 96.14 (≈ 409 µM) | < 25.1 | 25.7 | 19.1 | 45.6 (≈ 194 µM)
